Reference: EP2140864A2 (H. Lundbeck A/S, priority 2001, dated 2002)
Read-outs that look alike come from different tables or passages of the source.

How the values were obtained:
human GAL3 receptor = target: T1, human GAL3 receptor (Homo sapiens, UniProt O60755); assay: Radioligand binding at cloned human GAL3 receptor
T1 construct: expressed in transfected cells
T1 sequence (O60755 1-368): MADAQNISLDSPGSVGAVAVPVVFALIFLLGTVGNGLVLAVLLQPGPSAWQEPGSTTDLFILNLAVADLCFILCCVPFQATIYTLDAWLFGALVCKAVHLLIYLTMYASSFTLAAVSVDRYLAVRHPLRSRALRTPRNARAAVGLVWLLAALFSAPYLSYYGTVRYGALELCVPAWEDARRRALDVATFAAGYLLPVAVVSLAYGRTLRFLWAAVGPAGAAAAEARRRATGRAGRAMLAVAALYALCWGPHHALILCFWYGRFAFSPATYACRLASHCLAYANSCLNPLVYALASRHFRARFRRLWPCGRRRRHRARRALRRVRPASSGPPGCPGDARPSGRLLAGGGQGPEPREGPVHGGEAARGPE
Procedure, shortened: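 Compound vehicle, as final assay concentration, was 3% DMSO (indolones) or 1% ethanol/0.09% polypuronic acid F-127 (pyrimidines). Binding measured on fresh or frozen membranes of stably transfected LM(tk-) mouse fibroblasts carrying cloned human GAL3, in pH 7.4 HEPES buffer; values derived by nonlinear regression.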

human GAL2 receptor = target: T2, human GAL2 receptor (Homo sapiens, UniProt O43603); assay: Radioligand binding at cloned human GAL2 receptor
T2 construct: expressed in transfected cells
T2 sequence (O43603 1-387): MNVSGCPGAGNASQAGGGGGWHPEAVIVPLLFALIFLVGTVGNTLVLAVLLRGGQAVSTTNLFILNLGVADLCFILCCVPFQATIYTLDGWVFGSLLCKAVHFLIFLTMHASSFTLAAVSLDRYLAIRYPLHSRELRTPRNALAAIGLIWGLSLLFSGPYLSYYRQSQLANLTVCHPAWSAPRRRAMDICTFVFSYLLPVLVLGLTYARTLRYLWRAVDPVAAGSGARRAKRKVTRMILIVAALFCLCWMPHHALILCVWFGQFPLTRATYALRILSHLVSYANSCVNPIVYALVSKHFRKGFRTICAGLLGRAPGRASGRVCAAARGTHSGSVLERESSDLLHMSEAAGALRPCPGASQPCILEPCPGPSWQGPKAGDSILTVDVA
Method: The binding properties of the pyrimidines of the present invention were evaluated at the cloned human galanin receptors, GAL1, GAL2, and GAL3, using protocols described herein.
The binding properties of the indolones of the present invention were evaluated at the cloned human galanin receptors, GAL1, GAL2, and GAL3, using protocols described herein.
(§1) LM(tk-) cells were stably transfected with the human GAL1 or GAL3 receptor. CHO cells were stably transfected with the human GAL2 receptor.
(§2) cDNAs for the human and rat GAL1, and human and rat GAL3 receptors were transfected with a G-418 resistant gene into the mouse fibroblast LM(tk-) cell line by a calcium phosphate transfection method (Cullen, 1987). Stably transfected cells were selected with G-418. Human and rat GAL2 receptors were similarly transfected into CHO cells.
(§3) Membranes were harvested from stably transfected LM(tk-) cells. Adherent cells were washed twice in ice-cold phosphate buffered saline (138 mM NaCl, 8.1 mM Na2HPO4, 2.5 mM KCl, 1.2 mM KH2PO4, 0.9 mM CaCl2, 0.5 mM MgCl2, pH 7.4) and lysed by sonication in ice-cold sonication buffer (20 mM Tris-HCl, 5 mM EDTA, pH 7.7). Large particles and debris were cleared by low speed centrifugation (200 x g, 5 min, 4°C). Membranes were collected from the supernatant fraction by centrifugation (32,000 x g, 18 min, 4°C), washed with ice-cold hypotonic buffer, and collected again by centrifugation (32,000 x g, 18 min, 4°C). The final membrane pellet was resuspended by sonication into a small volume of ice-cold binding buffer (-1 ml for every 5 plates: 10 mM NaCl, 20 mM HEPES, 0.22 mM KH2PO4, 1.26 mM CaCl2, 0.81 mM MgSO4, pH 7.4). Protein concentration was measured by the Bradford method (Bradford, 1976) using Bio-Rad Reagent, with bovine serum albumin as a standard. Membranes were held on ice for up to one hour and used fresh, or flash frozen and stored in liquid nitrogen. Membranes were prepared similarly from CHO cells.
(§4) Galanin Recentors: Binding assays were performed according to the following published methods: human GAL3 (PCT International Publication No. WO 98/15570), human GAL1 (PCT International Publication No. WO 95/2260), human GAL2 (PCT International Publication No. WO 97/26853).
(§5) Binding data were analyzed using nonlinear regression and statistical techniques available in the GraphPAD Prism package (San Diego, CA). Enzymatic assay data were derived from a standard curve of reference compound data.

human GAL1 receptor = target: T3, human GAL1 receptor (Homo sapiens, UniProt P47211); assay: Radioligand binding at cloned human GAL1 receptor
T3 construct: expressed in transfected cells
T3 sequence (P47211 1-349): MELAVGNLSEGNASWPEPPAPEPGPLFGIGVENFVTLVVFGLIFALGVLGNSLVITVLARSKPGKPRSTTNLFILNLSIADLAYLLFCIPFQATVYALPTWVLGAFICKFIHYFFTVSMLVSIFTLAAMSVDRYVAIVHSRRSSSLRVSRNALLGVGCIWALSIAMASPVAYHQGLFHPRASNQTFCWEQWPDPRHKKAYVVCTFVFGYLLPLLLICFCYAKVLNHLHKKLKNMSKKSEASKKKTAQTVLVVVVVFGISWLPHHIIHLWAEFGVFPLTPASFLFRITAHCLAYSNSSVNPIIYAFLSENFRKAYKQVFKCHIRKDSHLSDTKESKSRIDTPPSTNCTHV
Method: The binding properties of the pyrimidines of the present invention were evaluated at the cloned human galanin receptors, GAL1, GAL2, and GAL3, using protocols described herein. […]
as §1, §2, §3, §4, §5

[1] = pyrimidines, cloned human receptor; read-out: Ki GalR3
[2] = pyrimidines, read-out: Ki GalR2
[3] = pyrimidines, read-out: Ki GalR1

Structure (SMILES) | Ki (human GAL3 receptor; [1]) [nM] | Ki (human GAL2 receptor; [2]) [nM] | other results
Cc1ccc(Nc2cc(N3CCCCC3)nc(NCCc3c[nH]c4ccc(C)cc34)n2)cc1 [Example 8] | 264 | 795 | –
COCCN(c1nc(Nc2ccc(C)cc2)cc(N2CCCCC2)n1)C1CCCCC1 [Example 2] | 26 | 562 | Ki (human GAL1 receptor; [3]): 2820 nM
CCc1ccccc1N1CCN(c2nc(Nc3ccc(C)cc3)cc(N3CCCCC3)n2)CC1 [Example 26] | 85 | 4050 | –
Cc1cccc(N=C2C(=O)N(c3ccccc3)c3ccccc32)c1 [Example 93] | – | – | Ki (human GAL3 receptor; indolones, cloned human receptor; read-out: Ki GalR3): 171 nM; Ki (human GAL2 receptor; indolones, read-out: Ki GalR2): > 10000 nM; Ki (human GAL1 receptor; indolones, read-out: Ki GalR1): > 10000 nM
Cc1ccc(Nc2cc(N3CCCCC3)nc(N3CCOCC3c3ccccc3)n2)cc1 (stereo not drawn) [Example 46] | 577 | > 5000 | Ki (human GAL1 receptor; [3]): > 5000 nM
COCCN(CCc1c[nH]c2ccccc12)c1nc(Nc2ccc(C)cc2)cc(N2CCCCC2)n1 [Example 19] | 79 | 1770 | –
COc1ccc(N2CCN(c3nc(Nc4ccc(C)cc4)cc(N4CCCCC4)n3)CC2)c(OC)c1 [Example 28] | – | – | Ki (human GAL3 receptor; read-out: Ki GalR3; pyrimidines, cloned human receptor): 270 nM; Ki (human GAL2 receptor; read-out: Ki GalR2, pyrimidines): > 5000 nM; Ki (human GAL1 receptor; read-out: Ki GalR1, pyrimidines): > 5000 nM
Cc1ccc(Nc2cc(N(C)C)nc(N3CCC(c4ccccc4)CC3)n2)cc1 [Example 81] | 160 | 4790 | –
Cc1ccc(Nc2cc(N3CCCCC3)nc(N(C)c3ccccc3)n2)cc1 [Example 6] | 248 | 2160 | –
CN(CCc1c[nH]c2ccccc12)c1nc(Nc2cccc(F)c2)cc(N2CCCCC2)n1 [Example 14] | 54 | 1340 | –
Cc1ccc(Nc2cc(N3CCCCC3)nc(NCCc3c[nH]c4ccccc34)n2)cc1 [Example 10] | 100 | 865 | –
Cc1ccc(Nc2cc(N3CCCCC3)nc(N3CCN(c4ncccc4C)CC3)n2)cc1 [Example 31] | 174 | 3400 | –
Cc1ccc(Nc2cc(N(C)C)nc(N(C)C3CCCCC3)n2)cc1 [Example 73] | 124 | 1550 | –
COc1ccc2[nH]cc(CCNc3nc(Nc4ccc(C)cc4)cc(N4CCCCC4)n3)c2c1 [Example 9] | 568 | 2110 | –
Cc1ccc(Nc2cc(N3CCCCC3)nc(N3CCC(c4ccccc4)CC3)n2)cc1 [Example 24] | 210 | 3960 | –
COc1cc2c(cc1OC)CN(c1nc(Nc3ccc(C)cc3)cc(N3CCCCC3)n1)CC2 [Example 42] | 275 | 1140 | –
Cc1ccc(Nc2cc(N3CCCCC3)nc(N3CCN(c4cc(C(F)(F)F)ccn4)CC3)n2)cc1 [Example 32] | 145 | 1860 | –
Cc1ccc(Nc2cc(N(C)C)nc(N3CCC(O)(c4ccccc4)CC3)n2)cc1 [Example 80] | 615 | 2480 | –
Cc1ccc(Nc2cc(N3CCCCC3)nc(N3CCCc4ccccc43)n2)cc1 [Example 40] | 164 | 2620 | –
